# Data from patent US10647665B2, “Biaryl urea derivative or salt thereof and preparation process and use for the same” (Fudan University, priority 2016, dated 2020).
# What was measured:
# [1] = tested on: Mouse Th17 cell differentiation; assay: Inhibition of mouse Th17 cell differentiation (IL-17 by intracellular staining and flow cytometry); format: cell-based; details: compound at 0.3 μM, mouse spleen CD4+ T cells, 96 hours
# Protocol: Experimental method: Mouse spleen CD4^+ T cells were isolated and differentiated into Th17 cells. CD4^+ T cells were cultured in the environment of anti-CD3 (0.25 μg/mL), anti-CD28 (1 μg/mL), anti-IL4 (2 μg/mL), anti-IFN-γ (2 μg/mL), TGF-β (5 ng/mL), and IL6 (20 ng/mL), and then the test compound was added. After 96 hours, the differentiation efficiency of Th17 was analyzed. Before collection of cells, PMA at 50 ng/mL and ionomycin at 500 ng/mL were added for stimulation for 4 hours, and the ratio of IL-17 was detected by intracellular staining and flow cytometry. At the same time, we used Live/Dead Cell Dye (Invitrogen) staining method to analyze the cell survival rate, to judge whether the drug had toxicity to cells, and determine the inhibition rate of the compound at a concentration of 0.3 μM on IL-17 differentiation by Th 17 cells.
# [2] = target: RORγ receptor (B-RORγ LBD) (Homo sapiens (Human), UniProt P51449); assay: Inhibitory activity on RORγ receptor in vitro by fluorescence resonance energy transfer (FRET); format: biochemical; details: average of at least two independent tests
# RORγ receptor (B-RORγ LBD), sequence (P51449 269-508): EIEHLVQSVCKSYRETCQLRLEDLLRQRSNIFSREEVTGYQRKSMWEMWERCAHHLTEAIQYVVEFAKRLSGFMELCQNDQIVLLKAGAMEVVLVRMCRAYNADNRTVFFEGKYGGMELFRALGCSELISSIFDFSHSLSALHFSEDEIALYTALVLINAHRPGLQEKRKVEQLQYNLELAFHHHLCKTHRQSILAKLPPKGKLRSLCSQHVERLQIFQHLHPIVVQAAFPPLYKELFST
# Protocol: The inhibitory activity of compounds on RORγ receptor was determined by fluorescence resonance energy transfer (FRET) experiments. The inhibitory activity was expressed by half-inhibitory concentration (IC50).
# 1. Preparation of RORγ Buffer Solution
# 10 mL of DTT and 100 mL buffer solution were gently mixed together and ready to use.
# 2. Preparation of Compound Solution
# (§1) 3. Preparation of Protein Mixture a. 40 nM B-RORγ LBD solution and 20 nM SA-APC solution were gently mixed together. The reaction mixture was incubated for 15 minutes at room temperature. Then 400 nM Biotin was added to the described above mixture. After gently mixed together, the resulting mixture was incubated for 10 minutes at room temperature. […]
# as §1, with “b.” for “3. Preparation of Protein Mixture a.”, “Bioin-SRC1” for “B-RORγ LBD”, “10” for “20”, “SA-eu” for “SA-APC”, “together, and the” for “together. The”, “200” for “400”
# d. A mixture of 0.1 μM alternative agonist
# N-(2-chloro-6-fluorophenyl)-N-((20-methoxy-[1,10-biphenylyl]-4-substituted)methyl)benzenesulfonamide, 25 μL B-RORγ LBD/SA-APC and Bioin-SRC1/SA-eu mixture solution with test compound were added to one of the well of a 384-well plate, then they were centrifuged for 1 minute at 1000 rpm, and incubated at room temperature for 1 hour. The values were read on the Envision microplate detector and IC50 was calculated.
SMILES,IC50 [2] [nM],inhibition at 0.3 µM [1] [%]
"Cn1cc(-c2cccc(OC(F)(F)F)c2-c2ccc(NC(=O)NCc3ccc(CC(=O)O)cc3)cc2)cn1 [Example 1-22b, 2-(4-((3-(2′-(1-methyl-1H-pyrazol-4-yl)-6′-(trifluoromethoxy)-[1,1′-biphenyl]-4-yl)ureido)methyl)phenyl)acetic acid]",500 to 5000,0 to 40
"CNS(=O)(=O)c1ccc(CNC(=O)Nc2cc(Cl)c(-c3ccccc3OC(F)(F)F)c(Cl)c2)nc1 [Example 1-13, 6-((3-(2,6-dichloro-2′-(trifluoromethoxy)-[1,1′-biphenyl]-4-yl)ureido)methyl)-N-methylpyridine-3-sulfonamide]",< 500,
"O=C(O)Cc1ccc(CNC(=O)Nc2cc(Cl)c(-c3ccccc3OC(F)(F)F)c(Cl)c2)cc1 [Example 1-15, 2-(4-((3-(2,6-dichloro-2′-(trifluoromethoxy)-[1,1′-biphenyl]-4-yl)ureido)methyl)phenyl)acetic acid]",,70 to 100
"CCS(=O)(=O)c1ccc(CNC(=O)Nc2ccc(-c3ccccc3)cc2)cc1 [Example 1-2, 1-([1,1′-biphenyl]-4-yl)-3-(4-(ethylsulfonyl)benzyl)urea]",5000 to 50000,0 to 40
"CS(=O)(=O)c1ccc(CNC(=O)Nc2cc(Cl)c(-c3ccccc3OC(F)(F)F)c(Cl)c2)nc1 [Example 1-12, 1-(2,6-dichloro-2′-(trifluoromethoxy)-[1,1′-biphenyl]-4-yl)-3-((5-(methylsulfonyl)pyridine-2-yl)methyl)urea]",< 500,
"NS(=O)(=O)c1ccc(CNC(=O)Nc2cc(Cl)c(-c3ccccc3OC(F)(F)F)c(Cl)c2)cc1 [Example 1-6, 4-((3-(2,6-dichloro-2′-(trifluoromethoxy)-[1,1′-biphenyl]-4-yl)ureido)methyl)benzenesulfonamide]",< 500,40 to 70
"Cn1cc(-c2cc(NC(=O)NCc3ccc(CC(=O)O)cc3)ccc2-c2ccccc2OC(F)(F)F)cn1 [Example 1-22a, 2-(4-((3-(2-(1-methyl-1H-pyrazol-4-yl)-2′-(trifluoromethoxy)-[1,1′-biphenyl]-4-yl)ureido)methyl)phenyl)acetic acid]",500 to 5000,0 to 40
"N#Cc1cc(NC(=O)NCc2ccc(CC(=O)O)cc2)cc(Cl)c1-c1ccccc1OC(F)(F)F [Example 1-16, 2-(4-((3-(2-chloro-6-cyano-2′-(trifluoromethoxy)-[1,1′-biphenyl]-4-yl)ureido)methyl)phenyl)acetic acid]",< 500,0 to 40
"CS(=O)(=O)c1ccc(CNC(=O)Nc2cc(Cl)c(-c3ccccc3OC(F)(F)F)c(Cl)c2)cc1 [Example 1-4, 1-(2,6-dichloro-2′-(trifluoromethoxy)-[1,1′-biphenyl]-4-yl)-3-(4-(methylsulfonyl)benzyl)urea]",< 500,40 to 70
"O=C(O)COc1ccc(CNC(=O)Nc2cc(Cl)c(-c3ccccc3OC(F)(F)F)c(Cl)c2)cc1 [Example 1-26, 2-(4-((3-(2,6-dichloro-2′-(trifluoromethoxy)-[1,1′-biphenyl]-4-yl)ureido)methyl)phenoxy)acetic acid]",,0 to 40
"CCS(=O)(=O)c1ccc(CNC(=O)Nc2cc(Cl)c(-c3ccccc3OC(F)(F)F)c(Cl)c2)nc1 [Example 1-11, 1-(2,6-dichloro-2′-(trifluoromethoxy)-[1,1′-biphenyl]-4-yl)-3-((5-(ethylsulfonyl)pyridine-2-yl)methyl)urea]",< 500,
"CCS(=O)(=O)c1ccc(CNC(=O)Nc2cc(Cl)c(-c3ccccc3OC(F)(F)F)c(Cl)c2)cc1 [Example I-1, 1-(2,6-dichloro-2′-(trifluoromethoxy)-[1,1′-biphenyl]-4-yl)-3-(4-(ethylsulfonyl)benzyl)urea]",,70 to 100
"CCS(=N)(=O)c1ccc(CNC(=O)Nc2cc(Cl)c(-c3ccccc3OC(F)(F)F)c(Cl)c2)cc1 (stereo not shown) [Example 1-9, 1-(2,6-dichloro-2′-(trifluoromethoxv)-[1,1′-biphenyl]-4-yl)-3-(4-(ethylsulfonimidoyl)benzyl)urea]",< 500,

# More lines, main results first:
IC50 [2] [nM],SMILES,inhibition at 0.3 µM [1] [%]
500 to 5000,"CN(C(=O)NCc1ccc(CC(=O)O)cc1)c1cc(Cl)c(-c2ccccc2OC(F)(F)F)c(Cl)c1 [Example 1-27, 2-(4-((3-(2,6-dichloro-2′-(trifluoromethoxy)-[1,1′-biphenyl]-4-yl)-3-methylureido)methyl)phenyl)acetic acid]",
500 to 5000,"Cc1cc(CNC(=O)Nc2cc(Cl)c(-c3ccccc3OC(F)(F)F)c(Cl)c2)ccc1CC(=O)O [Example 1-31, 3-(4-((3-(2,6-dichloro-2′-(trifluoromethoxy)-[1,1′-biphenyl]-4-yl)ureido)methyl)-2-methylphenyl)acetic acid]",
500 to 5000,"CC(C(=O)O)c1ccc(CNC(=O)Nc2cc(Cl)c(-c3ccccc3OC(F)(F)F)c(Cl)c2)nc1 (stereo not shown) [Example 1-30, 2-(6-((3-(2,6-dichloro-2′-(trifluoromethoxy)-[1,1′-biphenyl]-4-yl)ureido)methyl)pyridin-3-yl)propanoic acid]",
< 500,"O=C(NCc1ccc(C(F)C(=O)O)cc1)Nc1cc(Cl)c(-c2ccccc2OC(F)(F)F)c(Cl)c1 (stereo not shown) [Example 1-38, 2-(4-((3-(2,6-dichloro-2′-(trifluoromethoxy)-[1,1′-biphenyl]-4-yl)ureido)methyl)phenyl)-2-fluoroacetic acid]",
500 to 5000,"CC(C(=O)O)c1ccc(CNC(=O)Nc2cc(Cl)c(-c3ccccc3OC(F)(F)F)c(Cl)c2)cc1 (stereo not shown) [Example 1-24, 2-(4-((3-(2,6-dichloro-2′-(trifluoromethoxy)-[1,1′-biphenyl]-4-yl)ureido)methyl)phenyl)propanoic acid]",
< 500,"O=C(O)Cc1ccc(CNC(=O)Nc2cc(Cl)c(-c3ccccc3OC(F)F)c(Cl)c2)cc1 [Example 1-20, 2-(4-((3-(2,6-dichloro-2′-(difluoromethoxy)-[1,1′-biphenyl]-4-yl)ureido)methyl)phenyl)acetic acid]",0 to 40
< 500,"Cc1cc(NC(=O)NCc2ccc(CC(=O)O)cc2)cc(Cl)c1-c1ccccc1OC(F)(F)F [Example 1-17, 2-(4-((3-(2-chloro-6-methyl-2′-(trifluoromethoxy)-[1,1′-biphenyl]-4-yl)ureido)methyl)phenyl)acetic acid]",70 to 100
< 500,"Cc1cc(NC(=O)NCc2ccc(CC(=O)O)cc2)cc(C)c1-c1ccccc1OC(F)F [Example 1-21, 2-(4-((3-(2′-(difluoromethoxy)-2,6-dimethyl-[1,1′-biphenyl]-4-yl)ureido)methyl)phenyl)acetic acid]",0 to 40
5000 to 50000,"O=C(O)Cc1ccc(CNC(=O)Nc2ccc(-c3ccccc3)cc2)cc1 [Example 1-23, 2-(4-((3-([1,1′-biphenyl]-4-yl)ureido)methyl)phenyl)acetic acid]",0 to 40
500 to 5000,"O=C(O)CCc1ccc(CNC(=O)Nc2cc(Cl)c(-c3ccccc3OC(F)(F)F)c(Cl)c2)cc1 [Example 1-36, 3-(4-((3-(2,6-dichloro-2′-(trifluoromethoxy)-[1,1′-biphenyl]-4-yl)ureido)methyl)phenyl)propanoic acid]",
500 to 5000,"O=C(O)Cc1ccc(CNC(=O)Nc2cc(F)c(-c3ccccc3OC(F)(F)F)c(F)c2)cc1 [Example 1-19, 2-(4-((3-(2,6-difluoro-2′-(trifluoromethoxy)-[1,1′-biphenyl]-4-yl)ureido)methyl)phenyl)acetic acid]",0 to 40
500 to 5000,"O=C(O)Cc1ccc(CNC(=O)Nc2ccc(-c3ccccc3OC(F)(F)F)c(Cl)c2)cc1 [Example 1-18, 2-(4-((3-(2-chloro-2′-(trifluoromethoxv)-[1,1′-biphenyl]-4-yl)ureido)methyl)phenyl)acetic acid]",0 to 40
< 500,"O=C(NCc1ccc(C(O)C(=O)O)cc1)Nc1cc(Cl)c(-c2ccccc2OC(F)(F)F)c(Cl)c1 (stereo not shown) [Example 1-37, 2-(4-((3-(2,6-dichloro-2′-(trifluoromethoxy)-[1,1′-biphenyl]-4-yl)ureido)methyl)phenyl)-2-hydroxyacetic acid]",
< 500,"Cc1cc(CC(=O)O)ccc1CNC(=O)Nc1cc(Cl)c(-c2ccccc2OC(F)(F)F)c(Cl)c1 [Example 1-34, 3-(4-((3-(2,6-dichloro-2′-(trifluoromethoxy)-[1,1′-biphenyl]-4-yl)ureido)methyl)-3-methylphenyl)acetic acid]",
500 to 5000,"CN(Cc1ccc(CC(=O)O)cc1)C(=O)Nc1cc(Cl)c(-c2ccccc2OC(F)(F)F)c(Cl)c1 [Example 1-28, 2-(4-((3-(2,6-dichloro-2′-(trifluoromethoxy)-[1,1′-biphenyl]-4-yl)-1-methylureido)methyl)phenyl)acetic acid]",
